Each molecule was assayed against T1, PDGFR (Homo sapiens, UniProt P09619) (assay: PDGF-R Cellular Assay (ELISA)). Conditions: U1242 human glioblastoma cells.
T1 construct: endogenous in cells; host or cells: U1242 MG human glioblastoma cells
Format: cell-based
Description: The following examples illustrates the ability of the exemplary compounds to inhibit receptor tyrosine kinases, such as HER2 and/or EGFR. The following target cells were used for cellular kinase assays: NIH3T3 clone C7 (Honegger et al., supra) engineered to over-express human EGF receptor; NIH3T3 cells engineered to over-express a chimeric receptor containing the EGFR extracellular domain and the HER2 intracellular kinase domain; the human mammary carcinoma line BT474 (ATCC HTB2) expressing HER2; and the human glioblastoma line U1242 that expresses PDGFR-beta. Growth assays were carried out using human mammary epithelial SKBR3 (ATCC HTB30) cells (SKBR3 cells over-express HER2), SKOV3 (AT(D(D HTB77) human ovarian cancer cell line (SKOV3 cells also over-express HER2), A431 cells (A431 cells over-express EGFR) MCF7 human breast carcinoma cells, MCF7 cells overexpressing the HER2 kinase (MCF7-HER2), NIH3T3 cells, and NIH3T3 cells overexpressing the HER2 kinase (3T3-HER2.
The PDGF cellular kinase assay was carried out as follows: cells are lysed in 0.2M Hepes, 0.15M NaCl, 10% VN glycerol, 0.04% Triton X-100, 5 mM EDTA, 5 mM Na+ vanadate and 2 mM Na+ pyrophosphate; cell lysates are then added to an ELISA plate coated with an anti-PDGF receptor antibody (Genzyme); ELISA plates are coated at 0.5 μg of antibody/well in 150 μl of PBS for 18 hours at 4° C. prior to the addition of the lysate; the lysate is incubated in the coated plates for 1 hour and then washed four times in TBST (35 mM Tris-HCl pH 7.0, 0.15M NaCl, 0.1% Triton X100); anti-phosphotyrosine antibody (100 μl in PBS) is added and the mixture is incubated for 30 minutes at room temperature; the wells were then washed four times in TBST, a secondary antibody conjugated to POD (TAGO) is added to each well, and the treated well are incubated for 30 minutes at room temperature; the wells are then washed four times in TBST, ABTS/H2 O2 solution is added to each well and the wells are incubated for two minutes; absorbance is then measured at 410 nm.
U1242 MG cells were plated in 96-well plates at a concentration of 5×10^4 cells/well in cultured media containing 0.5% FBS. The cells were incubated for 24 hours. The cells were then treated with a particular compound for 2 hours followed by the addition of 100 ng/ml PDGF-BB and incubation for 10 minutes.
Cells were lysed in 0.2M Hepes, 0.15M NaCl, 10% VN glycerol, 0.04% Triton X-100, 5 mM EDTA, 5 mM Na^+ vanadate and 2 mM Na^+ pyrophosphate. Cell lysates were then added to an ELISA plate coated with an anti-PDGF receptor antibody (Genzyme). ELISA plates were coated at 0.5 μg of antibody/well in 150 μl of PBS for 18 hours at 4° C. prior to the addition of the lysate.
The lysate was incubated in the coated plates for 1 hour and then washed four times in TBST (35 mM Tris-HCl pH 7.0, 0.15M NaCl, 0.1% Triton X-100). Anti-phosphotyrosine antibody (100 μl in PBS) was added and the mixture was incubated for 30 minutes at room temperature. The wells were then washed four times in TBST, a secondary antibody conjugated to POD (TAGO) was added to each well, and the treated well were incubated for 30 minutes at room temperature. The wells were then washed four times in TBST, ABTS/H2 O2 solution was added to each well and the wells were incubated for two minutes. Absorbance was then measured at 410 nm.

T1 sequence (P09619 33-1106): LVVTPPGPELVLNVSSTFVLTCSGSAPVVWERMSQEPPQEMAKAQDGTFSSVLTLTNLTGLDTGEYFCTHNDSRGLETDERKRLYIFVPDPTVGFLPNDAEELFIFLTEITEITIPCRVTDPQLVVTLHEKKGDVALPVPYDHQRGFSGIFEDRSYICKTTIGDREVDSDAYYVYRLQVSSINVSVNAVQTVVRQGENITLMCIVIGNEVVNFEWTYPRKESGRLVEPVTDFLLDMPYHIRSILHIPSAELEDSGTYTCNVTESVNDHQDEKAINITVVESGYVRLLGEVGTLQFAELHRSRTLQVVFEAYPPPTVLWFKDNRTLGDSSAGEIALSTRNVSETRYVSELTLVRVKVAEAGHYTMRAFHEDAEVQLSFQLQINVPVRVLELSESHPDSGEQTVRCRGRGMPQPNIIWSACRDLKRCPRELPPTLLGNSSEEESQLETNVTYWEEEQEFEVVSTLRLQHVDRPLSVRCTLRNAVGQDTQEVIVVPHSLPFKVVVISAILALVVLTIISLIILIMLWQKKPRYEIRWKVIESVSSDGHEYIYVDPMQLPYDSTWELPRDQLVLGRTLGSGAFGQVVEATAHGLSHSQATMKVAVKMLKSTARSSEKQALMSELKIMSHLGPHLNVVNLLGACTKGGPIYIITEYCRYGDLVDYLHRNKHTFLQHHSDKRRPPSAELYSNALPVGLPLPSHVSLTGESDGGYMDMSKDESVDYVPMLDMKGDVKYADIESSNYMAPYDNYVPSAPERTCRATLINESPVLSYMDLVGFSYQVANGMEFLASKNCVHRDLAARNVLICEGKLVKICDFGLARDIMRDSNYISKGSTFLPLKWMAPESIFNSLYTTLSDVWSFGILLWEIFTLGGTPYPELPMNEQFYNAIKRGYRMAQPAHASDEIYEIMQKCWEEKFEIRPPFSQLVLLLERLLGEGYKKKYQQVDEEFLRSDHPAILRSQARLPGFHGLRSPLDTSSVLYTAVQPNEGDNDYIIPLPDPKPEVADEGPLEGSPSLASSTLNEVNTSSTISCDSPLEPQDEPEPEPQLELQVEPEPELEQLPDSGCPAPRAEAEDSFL

IC50 [µM] | SMILES
> 100 | CCOC(=O)c1cnc2ccc(C(F)(F)F)cc2c1Nc1cccc(Br)c1 [Compound A716, 4-(3-Bromophenylamino)-3-ethoxycarbonyl-6-trifluoromethylquinoline]
> 50 | CCOC(=O)c1cnc2c(F)ccc(F)c2c1Sc1ccc(Cl)cc1 [Compound A732, 4-(4-Chlorophenylmercapto)-5,8-difluoro-3-ethoxycarbonylquinoline]
> 100 | CCOC(=O)c1cnc2ccc(C(F)(F)F)cc2c1Nc1ccc(C(F)(F)F)cc1 [Compound A722, 3-Ethoxycarbonyl-4-(4-trifluoromethylphenylamino)-6-trifluoromethylquinoline]
> 50 | CCOC(=O)c1cnc2c(F)cc(F)cc2c1Sc1ccc(Cl)cc1 [Compound A730, 4-(4-Chlorophenylmercapto)-6,8-difluoro-3-ethoxycarbonylquinoline]
> 50 | CCOC(=O)c1cnc2c(F)ccc(F)c2c1Sc1cccc(C(F)(F)F)c1 [Compound A713, 3-Ethoxycarbonyl-5,8-difluoro-4-(3-trifluoromethylphenylmercapto)quinoline]
> 50 | CCOC(=O)c1cnc2cc(Cl)c(F)cc2c1Sc1ccc(Cl)cc1 [Compound A731, 7-Chloro-4-(4-chlorophenylmercapto)-6-fluoro-3-ethoxycarbonylquinoline]
> 100 | CCOC(=O)c1cnc2ccc(C(F)(F)F)cc2c1Nc1cccc(C(F)(F)F)c1 [Compound A721, 3-Ethoxycarbonyl-4-(3-trifluoromethylphenylamino)-6-trifluoromethylquinoline]

From patent publication US5650415A, “Quinoline compounds” (Sugen, Inc., priority 1995, dated 1997)
